Consider 3 molecules from US20240365779A1, “POLLEN PRESERVATION COMPOSITIONS” (PowerPollen, Inc., priority 2017, published 2024).

The test system of data set [1] is maize pollen. Kind of data set: Maize pollen viability by Amphasys impedance flow cytometry after storage with a substance. Type of data set: cell-based. The following applies: 1:1 volume pollen to sugar, 4° C. On the procedure:
In initial experiments considering different types separation compounds to use for pollen storage, experiments were conducted using activated charcoal as a separator. Field pollen was hand collected from various maize genotypes, and temporarily stored in 50 ml conical tubes, at 5° C. T0 Amphasys was conducted along with pollen moisture content (PMC) determination of the unmixed control pollen. Amphasys provides a reliable determination of pollen viability using an impedance flow cytometer, which measures the electrical properties of pollen grains. Viability at T0 was 97% with a PMC of 57% using the standard overnight oven method. The pollen was mixed with charcoal powder (activated charcoal) at various percentages. Activated charcoal is often used to absorb toxic substances. Mixed samples were then stored at 5° C., in uncapped 50 mL tubes. Timepoint data was collected at days 1 and 6, using Amphasys when the concentration of charcoal would allow. Small quantities of sample were suspended in Ampha 6 media and then filtered with a 150 μm filter to remove any large particles that might affect the fluidics on the Amphasys. […] Used in lower quantities, 2.5-25% in this case, viability remained as high as 92% at 6 days storage.
In continued efforts to test different substances for the purposes of pollen grain separation, an experiment was conducted with a series of different saccharides to determine efficacy for pollen grain separation and preservation. Mixed pollen was collected from various actively-shedding maize plants grown in the greenhouse. Hand collection was done with a funnel and screen to remove anthers. The bulk pollen sample was divided into four equal portions, each of which was approximately 5 mL in volume. Each sample of pollen was stored in a capped 50 mL conical tube at 5° C. overnight and its viability was tested using Amphasys roughly 24 hours after collection. A 1:1 volume ratio of one of three different types of sugars was added to each tube so that the amount of sugar was equal to the amount of pollen in each tube. […]
(In flow cytometry, cells or beads pass a laser one at a time.)

For data set [2], the system named is wheat pollen. Kind of data set: Wheat pollen viability by Amphasys after anther storage. Format: cell-based. On the procedure:
In order to determine whether the method of maintaining pollen separation was effective in other plant species, experiments were conducted with wheat. Wheat heads of Grandin wheat variety were collected at early emergence stage and post-emergence stage. At the post emergence stage, a few anthers were exposed on the wheat heads. The anthers were collected from a subsample of the heads and the collected anthers were ground with a nylon pestle in 1.5 mL of Ampha 6 media, filtered, and run through the Amphasys system to measure T0 viability. Amphasys provides a reliable determination of pollen viability using an impedance flow cytometer, which measures the electrical properties of pollen grains.
A second subsample of the early emergence stage and post-emergence wheat heads were taken from different regions of each head. These samples were stored whole at 5° C. in cryo vials. The samples in the vials had either no storage medium, lactose particulate storage medium, or lactose (Lab grade D-lactose monohydrate, RPI #L26100-1000.0) combined with 2% Sipernat® 340 storage medium. After storage for either 3 or 14 days, pollen was extracted from the stored anthers using the nylon pestle, and viability was determined using Amphasys.

Data set [3] concerns rice pollen. Kind of data set: Rice pollen viability by Amphasys after anther storage. Format: cell-based. On the procedure:
Another experiment was conducted to test the efficacy of maintaining separation of pollen grains in rice. Rice anthers were collected from a pool of cut back glumes. One sample of the anthers was ground with a nylon pestle in 1.5 mL of Ampha 6 media, filtered, and run through the Amphasys system to measure T0 viability. Amphasys provides a reliable determination of pollen viability using an impedance flow cytometer, which measures the electrical properties of pollen grains.
A second subsample of the anthers was divided into three groups that were stored whole at 5° C. in cryo vials. […]. The samples in the vials had either no storage medium, lactose particulate storage medium, or chemical grade lactose combined with 2% Sipernat® 340 storage medium. After storage for either 4 days or 10 days, pollen was extracted from the stored anthers using the nylon pestle, and viability was determined using Amphasys.

Data set [4] is described as follows: Flowability / clumping observation of pollen-substance mixtures. The note with it: 1:1 pollen to sugar, 4° C. Type of data set: physicochemical.
In data set [5] the test system is maize pollen. Kind of data set: Germination assay of stored maize pollen (pollen tube formation). Type of data set: cell-based. The following applies: equal portion with pollen, 20 hours of storage at 4 degrees Celsius. As to the method:
Casein and cellulose were both tested separately as possible substances for maintaining or increasing pollen viability. […] Freshly harvested maize pollen was harvested from actively shedding tassels. The pollen was divided into two equal portions, each of which was placed into a 50 ml centrifuge tube. […] Each tube was stored for 24 hours at 4 degrees Celsius. A germination assay was conducted after 24 hours. […] Sonneborn® PD-23 mineral oil was tested as a pollen separation agent. This substance was a liquid at all stages of the described experiment. Freshly harvested pollen from a bulk of maize plants was placed into mineral oil and stored at 4 degree Celsius for a period of 20 hours. After 20 hours, germination media was applied into the oil formulation. The results supported that liquid serves as a proficient storage media for pollen. […] This further supports the concept that separation of pollen grains increases viability.

“Also recorded” adds a separate entry of the source.

For the molecule `OC[C@H]1O[C@H](O[C@H]2O[C@H](CO)[C@@H](O)[C@H](O)[C@H]2O)[C@H](O)[C@@H](O)[C@@H]1O` [trehalose], the viability result is listed as “sharper decline” in data set [1] (Day 2, compared to the other 3 samples) and “slight decline in viability” in data set [1] (after 24 hours of storage, compared to the other samples).
`OC[C@H]1O[C@@H](O[C@H]2[C@H](O)[C@@H](O)C(O)O[C@@H]2CO)[C@H](O)[C@@H](O)[C@H]1O` (some centres unmarked) [lactose] had a viability in data set [1] (Day 8) of 77%. In addition, the “Early Emergence Heads Viability (%)” value in data set [2] (Day 3, stored whole at 5° C.) is 28-41%; in data set [2] (Day 14, stored whole at 5° C.) it was 39-44%. In addition, the “Post-emergence Heads Viability (%)” value in data set [2] (Day 3, stored whole at 5° C.) was 27-35%; in data set [2] (Day 14, stored whole at 5° C.), 6-17%. Besides, the “Pollen Viability (%)” value in data set [3] (Day 4, anthers stored whole at 5° C.) is given as 57-63%; in data set [3] (Day 10, anthers stored whole at 5° C.) it was 24-27%. Also, the “flowability of pollen in sample” value in data set [4] was “slightly clumpy”.
Consider casein, for which the “viability (germination assay)” value in data set [5] is on record as “largely, if not completely unviable; also recorded: little to no viability”.

Usually viability stands for a per cent measure of how many cells are alive, often set against a control. Low values mean more harm to the cells, high ones less harm to the cells.
